Where a SMILES comes first, the peptide text is derived from it. Bridges are numbered along the chain shown (N, C = ends). Where no end group is shown, it is not given here. [ ]: non-standard residue; d: D form. The star is where a group is joined. 5FAM = O=C1OC2(c3ccc(O)cc3Oc3cc(O)ccc32)c2ccc(C(=O)*)cc21; Bpa = N[C@@H](Cc1ccc(C(=O)c2ccccc2)cc1)C(=O)O

For assay [1], the target named is T1, BRD3-BD2 (Homo sapiens, UniProt Q15059).
T1 construct: BRD3-BD2 (306–421, Q15059); Avi tag (biotinylated in vivo; vector pQE80L-Navi); made in house; host or cells: Escherichia coli BL21(DE3)
T1 sequence (Q15059 306-421): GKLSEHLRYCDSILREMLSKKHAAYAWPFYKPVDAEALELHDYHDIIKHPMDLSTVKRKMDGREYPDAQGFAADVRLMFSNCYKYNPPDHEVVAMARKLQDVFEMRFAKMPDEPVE
The experiment in a line: Direct fluorescence anisotropy binding assay. The note with it: direct fluorescence anisotropy with FAM-labelled peptide (100 nM final), 12-point 2-fold dilution of BRD3-BD2, 30 min rt, read at 25 °C; mean of at least three replicates ± SD. How it is done:
Binding affinities for the two fluorescently tagged peptides were then determined using a direct fluorescence anisotropy assay (Fig. 2d and Supplementary Fig. S6). […] Having established that our peptides were able to bind to BRD3-BD2, we next assessed the crosslinking efficiency of the unlabelled variants. We were pleased to find that both peptides efficiently cross-linked to BRD3-BD2 upon exposure to UV light. After incubation with two equivalents of peptide and irradiation at 365 nm for only 5 min, we observed around 40% protein modification as analysed by sample separation on an SDS-PAGE gel and Coomassie staining. […]
(§1) S7. Direct fluorescence anisotropy assay […]
(§2) After 30 min, fluorescence anisotropy was measured with a CLARIOstar plate reader (BMG Labtech) using excitation at 482 nm and emissions at 530 nm at 25 °C. […] KD values were calculated using GraphPad Prism and a curve fitted using a one site - total fitting model. […]
(§3) Irradiated samples were analysed by SDS-PAGE on 4–20% Bis-Tris gels (mPAGE, Millipore).
(§4) Experiments with Bpa-P1 and Bpa-P2 were visualised by Quick Coomassie staining (Neo Biotech) with gels imaged on a Chemidoc MP Imaging System (Biorad) and quantified by Fiji. Experiments with Bpa-P1-FAM and Bpa-P2-FAM were visualised by in gel fluorescence imaging using a Typhoon FLA 9500 […]
Irradiated samples with BRD3-BD2 were further analysed by LCMS. […]
For orientation: Fluorescence polarisation rises when a labelled molecule tumbles more slowly, as on binding a larger partner.

For assay [2], the target named is T1, BRD3-BD2. In words: Photocrosslinking of BRD3-BD2, SDS-PAGE/Coomassie densitometry. It is filed as biochemical. As to conditions: BRD3-BD2 20 µM, peptide 40 µM (two equivalents), 365 nm for 40 min, 0 °C; SDS-PAGE, Coomassie; mean of triplicate. As to the method: Fig. 3 Photocrosslinking of BRDs with pBpa-containing ligands. a Crosslinking between BRD3-BD2 (20 µM) and cyclic peptides (40 µM) after exposure to UV irradiation (365 nm) for variable amounts of time (0, 5, 10, 20, 40 min). Samples were separated on an SDS-PAGE gel and visualised by Coomassie staining. b Plot of percentage of cross-linked BRD3-BD2 calculated by densitometric analysis of protein bands from (a). Crosslinking efficiencies are represented as the mean of triplicate experiments ±1 standard deviation. c Crosslinking of BRD3-BD2/BRD2-BD2/BRD4-BD2/BRD3-BD1 (2 µM) by cyclic peptides (20 µM) after exposure to UV irradiation for 30 min. Samples were analysed and processed as described in (a, b). […]
as §1, §2, §3, §4

The target in assay [3] is BRD3-BD1. The note with it: tight binding peptide to its target protein BRD3-BD1; cited from earlier work.
Assay [4] has as its target T2, second bromodomain of BRD3 (BRD3-BD2), biotinylated (human (from the printed accession), UniProt Q15059 306-421, biotin (biotinylated; cultures induced with IPTG and 100 µM biotin)).
T2 construct: BRD3, second bromodomain, residues 306-421 of Q15059; also called wild-type BRD3-BD2; source: E. coli BL21(DE3), purified (HisTrap, Superdex 75)
In words: SPR; peptide 3.2B on BRD3-BD2 cross-linked to Bpa-P1 or Bpa-P2; mean ± standard deviation of the mean. As to conditions: both partners purified. (Surface plasmon resonance follows binding to a sensor surface in real time, without labels.)

T2 sequence (Q15059 306-421): as above

As usually defined, the Kd is the equilibrium constant for the complex coming apart. In assay [1], `CC(C)C[C@@H]1NC(=O)[C@H](Cc2ccc(O)cc2)NC(=O)[C@H](Cc2ccc(C(=O)c3ccccc3)cc2)NC(=O)[C@H](CC(=O)O)NC(=O)[C@H](CC(=O)O)NC(=O)[C@H](CC(N)=O)NC(=O)[C@H](C(C)C)NC(=O)[C@H](CO)NC(=O)[C@H](CC(N)=O)NC(=O)[C@H](CC(C)C)NC(=O)[C@@H](Cc2ccc(O)cc2)NC(=O)CSC[C@@H](C(=O)NCC(=O)N[C@@H](CCCCNC(=O)c2ccc3c(c2)C(=O)OC32c3ccc(O)cc3Oc3cc(O)ccc32)C(N)=O)NC(=O)[C@H](Cc2ccc(O)cc2)NC(=O)[C@H](C)NC1=O` [Bpa-P1-FAM] ({CH2CO}-[dY]LNSVNDD[Bpa]YLAYCGK(5FAM)-NH2; thioether N-14) registered a Kd of 29 ± 10 µM.

Consider `CC(C)C[C@@H]1NC(=O)[C@H](Cc2ccc(O)cc2)NC(=O)[C@H](Cc2ccc(C(=O)c3ccccc3)cc2)NC(=O)[C@H](CC(=O)O)NC(=O)[C@H](CC(=O)O)NC(=O)[C@H](CC(N)=O)NC(=O)[C@H](C(C)C)NC(=O)[C@H](CO)NC(=O)[C@H](CC(N)=O)NC(=O)[C@H](CC(C)C)NC(=O)[C@@H](Cc2ccc(O)cc2)NC(=O)CSC[C@@H](C(=O)NCC(N)=O)NC(=O)[C@H](Cc2ccc(O)cc2)NC(=O)[C@H](C)NC1=O` [Bpa-P1] ({CH2CO}-[dY]LNSVNDD[Bpa]YLAYCG-NH2; thioether N-14), for which, in assay [2], the “protein modification (cross-linked BRD3-BD2)” value was determined as 96%.

`CC[C@H](C)[C@@H]1NC(=O)[C@H](Cc2ccccc2)NC(=O)[C@H](Cc2ccc(C(=O)c3ccccc3)cc2)NC(=O)[C@H]([C@@H](C)O)NC(=O)[C@H](CC(=O)O)NC(=O)CNC(=O)[C@H](CCCCN)NC(=O)[C@H](C)NC(=O)[C@H](CC(N)=O)NC(=O)[C@H](CC(C)C)NC(=O)[C@@H](Cc2ccc(O)cc2)NC(=O)CSC[C@@H](C(=O)NCC(=O)N[C@@H](CCCCNC(=O)c2ccc3c(c2)C(=O)OC32c3ccc(O)cc3Oc3cc(O)ccc32)C(N)=O)NC(=O)[C@H](Cc2ccc(O)cc2)NC(=O)[C@H]([C@@H](C)CC)NC1=O` [Bpa-P2-FAM] ({CH2CO}-[dY]LNAKGDT[Bpa]FIIYCGK(5FAM)-NH2; thioether N-14) registered a Kd in assay [1] of 14 ± 1 µM.

In the case of `CC[C@H](C)[C@@H]1NC(=O)[C@H](Cc2ccccc2)NC(=O)[C@H](Cc2ccc(C(=O)c3ccccc3)cc2)NC(=O)[C@H]([C@@H](C)O)NC(=O)[C@H](CC(=O)O)NC(=O)CNC(=O)[C@H](CCCCN)NC(=O)[C@H](C)NC(=O)[C@H](CC(N)=O)NC(=O)[C@H](CC(C)C)NC(=O)[C@@H](Cc2ccc(O)cc2)NC(=O)CSC[C@@H](C(=O)NCC(N)=O)NC(=O)[C@H](Cc2ccc(O)cc2)NC(=O)[C@H]([C@@H](C)CC)NC1=O` [Bpa-P2] ({CH2CO}-[dY]LNAKGDT[Bpa]FIIYCG-NH2; thioether N-14), the “protein modification (cross-linked BRD3-BD2)” value in assay [2] amounted to 78%.

In the case of “cyclic-WKTIKGKTWRTKQC(S-) (sidechain bridge or staple) [3.1B, previously identified non-covalent cyclic peptide ligand of the first bromodomain of BRD3, BRD3-BD1]”, in assay [3], the Kd is 0.00049 µM.

B1: peptide 3.2B (peptide)
peptide: WSWLCKK(Ac)YNLIH
modifications: thioether (positions not given here); not fully specified (bridges); also: cyclic through C5 sulfur, other ring end not given here, bridge at 5, other end not in the chain
notes: Printed as cyclic-WSWLC(S-)KKYNLIH with the second K underlined (acetylated)
In the case of B1, the binding result in assay [4] is “binds”.

Source of the values: article PMC10232439, “Identification of photocrosslinking peptide ligands by mRNA display” (Communications Chemistry, 2023).
